Measured values as given in ChEMBL document CHEMBL5393443, “Novel inhibitors of insulin-like growth factor 2 mrna binding proteins” (2022).

Test system: ES-2
Assay: Cytotoxicity against human ES2 cells after 72 hrs by InuCyte live cell imaging analysis
Format: functional, cell-based
Settings: ES-2, 72 h

Structure (SMILES) | EC50 [µM]
Cc1cc2c(O)nc(Cc3ccccc3)nc2s1 | 4.84
NC(=O)c1ccsc1NC(=O)c1cccs1 | 3.23
NC(=O)c1ccccc1NC(=O)CN1CCN(Cc2ccc(Cl)cc2Cl)CC1 | 0.993
NC(=O)c1ccccc1NC(=O)c1ccccc1 | 10.5
NC(=O)c1cc(Cc2ccccc2)sc1NC(=O)CN1CCN(Cc2ccccc2Cl)CC1 | 7.11
COc1ccc(C(=O)Nc2sc(Cc3ccccc3)cc2C(N)=O)cc1 | 1.94
COc1ccc(C(=O)Nc2sc(C(C)C)cc2C(N)=O)cc1COc1ccc(Br)cc1 | 8.35
CC(Sc1nnc(NC(=O)c2ccccc2)s1)c1nc2ccccc2c(=O)[nH]1 (configuration not stated) | 4.05
NC(=O)c1cc(Cc2ccccc2)sc1NC(=O)c1ccc2c(c1)OCO2 | 1.3
NC(=O)c1ccccc1NC(=O)c1ccc(Cl)c(Cl)c1 | 1.88
COc1cc(/C=C/C(=O)Nc2ccccc2C(N)=O)ccc1OCc1ccccc1 | 1.88
NC(=O)c1cc(Cc2ccccc2)sc1NC(=O)c1ccccc1 | 2.27
COc1ccc(C(=O)Nc2ccccc2C(N)=O)cc1COc1ccccc1Cl | 1.1
NC(=O)c1ccsc1NC(=O)CN1CCN(Cc2ccc(Cl)c(Cl)c2)CC1 | 0.781
NC(=O)c1cc(Cc2ccccc2)sc1NC(=O)Cc1cccs1 | 1.16
CC(C)c1cc(C(N)=O)c(NC(=O)Cc2ccc(Cl)c(Cl)c2)s1 | 2.45
NC(=O)c1ccccc1NC(=O)CN1CCN(Cc2c(Cl)cccc2Cl)CC1 | 6.46
NC(=O)c1cc(Cc2ccccc2)sc1NC(=O)c1cccs1 | 0.671
COc1cc(-c2nc3ccccc3c(=O)[nH]2)ccc1OCc1ccccc1[N+](=O)[O-] | 0.476

Structure (SMILES) | EC50 [µM]
NC(=O)c1ccccc1OCC(=O)c1ccc(Br)cc1 | 2.95
COc1ccc(C(=O)Nc2sc(Cc3ccccc3)cc2C(N)=O)cc1COc1c(Cl)cccc1Cl | 2.6
NC(=O)c1ccccc1NC(=O)c1cc(Cl)cc(Cl)c1 | 5.15
NC(=O)c1c(NC(=O)c2ccc(Cl)s2)sc2c1CCCC2 | 1.47
O=c1[nH]c(-c2ccc(OCc3ccccc3F)cc2)nc2ccccc12 | 0.25
NC(=O)c1ccccc1NC(=O)c1cccc(COc2cccc(Cl)c2)c1 | 0.675
COc1ccc(C(=O)Nc2sc(Cc3ccccc3)cc2C(N)=O)cc1COc1ccccc1Cl | 0.439
COc1ccc(C(=O)Nc2sc(C(C)C)cc2C(N)=O)cc1COc1ccccc1Cl | 2.23
NC(=O)c1cc(Cc2ccccc2)sc1NC(=O)COc1ccccc1 | 2.42
NC(=O)c1ccccc1NC(=O)C1CCN(C(=O)c2cccs2)CC1 | 5.18
NC(=O)c1cc(Cc2ccccc2)sc1NC(=O)c1cccc(COc2ccc(Cl)cc2Cl)c1 | 0.047
CCc1cc(C(=O)Nc2sccc2C(N)=O)cs1 | 2.95
COc1ccc(C(=O)Nc2ccccc2C(N)=O)cc1Cl | 5.84
NC(=O)c1ccccc1NC(=O)CN1CCN(Cc2ccc(Cl)c(Cl)c2)CC1 | 1.22
NC(=O)c1cc(Cc2ccccc2)sc1NC(=O)c1ccc(COc2ccc(Br)cc2)cc1 | 1.19
COc1ccc(C(=O)Nc2sc(Cc3ccccc3)cc2C(N)=O)cc1OCc1ccccc1Cl | 1.09
COc1ccc(C(=O)Nc2sc(Cc3ccccc3)cc2C(N)=O)cc1COc1cccc(Cl)c1 | 0.355
CCc1c(C(=O)Nc2sc(Cc3ccccc3)cc2C(N)=O)csc1C | 5.06
NC(=O)c1ccccc1NC(=O)CN1CCN(Cc2ccc(Cl)cc2)CC1 | 2.99

Structure (SMILES) | EC50 [µM]
NC(=O)c1cc(Cc2ccccc2)sc1NC(=O)c1ccc(COc2ccc(Cl)cc2Cl)s1 | 0.56
COc1ccc(C(=O)Nc2sc(Cc3ccccc3)cc2C(N)=O)cc1COc1cccc(Cl)c1Cl | 0.401
NC(=O)c1c(NC(=O)c2ccc(Cl)s2)sc2c1CCC2 | 6.27
NC(=O)c1cc(Cc2ccccc2)sc1NC(=O)c1ccc(Cl)s1 | 1.66
COc1ccc(C(=O)Nc2sccc2C(N)=O)cc1COc1ccccc1Cl | 1.66
NC(=O)c1ccccc1NC(=O)CN1CCN(Cc2ccc(F)cc2Cl)CC1 | 3.17
NC(=O)c1ccccc1NC(=O)c1ccc(Cl)s1 | 2.3
COc1ccc(OCc2cc(-c3nc4sc(Cc5ccccc5)cc4c(=O)[nH]3)ccc2OC)cc1 | 1.12
CCc1cc(C(=O)Nc2sc(Cc3ccccc3)cc2C(N)=O)cs1 | 1.9
COc1ccc(C(=O)Nc2sc(Cc3ccccc3)cc2C(N)=O)cc1COc1ccc(Cl)cc1 | 1.02
NC(=O)c1cc(Cc2ccccc2)sc1NC(=O)CCc1ccccc1 | 6.21
CNC(=O)c1ccccc1NC(=O)c1cc(C)c(C)s1 | 2.83
Cc1ccc(C(=O)Nc2ccccc2C(N)=O)s1 | 2.06
NC(=O)c1ccccc1OCc1ccc(Cl)s1 | 5.61
COc1ccc(C(=O)Nc2sc(Cc3ccccc3)cc2C(N)=O)cc1COc1ccc(Cl)cc1Cl | 0.293
NC(=O)c1ccccc1NC(=O)CN1CCN(Cc2ccccc2Cl)CC1 | 9.58
NC(=O)c1cc(Cc2ccccc2)sc1NC(=O)CN1CCN(Cc2ccc(Cl)c(Cl)c2)CC1 | 4.09
NC(=O)c1cc(Cl)ccc1OCC(=O)c1ccc(Cl)s1 | 1.33
Cc1ccc(C(=O)Nc2sc(Cc3ccccc3)cc2C(N)=O)o1 | 1.34
